Laboratory results: patent US9884012B2, “Use of PEDF-derived polypeptides for promoting muscle or tendon regeneration or arteriogenesis” (MacKay Memorial Hospital, priority 2012, dated 2018)

Test system: soleus muscle (muscle fibers, satellite cells)
Experiment: bupivacaine myonecrosis model, BrdU and Pax7 labeling of soleus muscle
Assay type: in vivo, Sprague-Dawley rats
Conditions: soleus muscle after bupivacaine injection; for BrdU Labeling Index (%): 50 μl sustained-release formulation (Bolus: bolus 29-mer), single intramuscular injection; for Pax7 Labeling Index (%): sustained-release formulation (Bolus: bolus 29-mer)
Method: De-paraffinized tissue sections were blocked with 10% goat serum for 1 hour. Staining was done using primary antibodies against BrdU (1:50 dilution; GTX42641) or type I collagen 1A1 (1:50 dilution) overnight at 4° C., followed by incubation with the appropriate peroxidase-labeled donkey immunoglobulin for 30 min and then with chromogen substrate (3,3′-diaminobenzidine) for 2 min before counterstaining with hematoxylin. Quantification was estimated based on high quality images (1208×960 pixels) captured using a Nikon Eclipse 80i light microscope.
For the detection of cell expansion, BrdU was reconstituted in DMSO as stock (80 mM). 10 μl of BrdU mixed with 90 μl of PBS was intraperitoneally injected into the mouse 16 hours prior to euthanasia. Also, 150 μl of BrdU mixed with 350 μl of PBS was intraperitoneally injected into the rat 16 hours prior to euthanasia. DNA synthesis was assessed by BrdU labeling with anti-BrdU antibodies.
De-paraffinized tissue sections or 4% paraformaldehyde fixed rabbit tendon stem cells (TSCs) were blocked with 10% goat serum and 5% BSA for 1 hour. Double staining was done using primary antibodies against α-SMA (1:100 dilution), IB4 (5 μg/ml), Pax7 (1:100 dilution), nucleostemin (1:100 dilution) and type I collagen 1A1 (1:50) at 37° C. for 2 hours, followed by incubation with the appropriate rhodamine- or FITC-conjugated donkey IgG for 1 hour at RT. Nuclei were located by counterstaining with Hoechst 33258 for 7 minutes. Images were captured using a Zeiss epifluorescence microscope with a CCD camera.
To investigate the effects of the present PEDF peptides on muscle regeneration, a rat myonecrosis model of a single injection of bupivacaine into the soleus muscle was employed. Adult 10-week-old male Sprague-Dawley rats (initial body weight=312±11 g) were anesthetized by an intraperitoneal injection of a xylazine (10 mg/kg). Then, the soleus muscle was injured by unilaterally injecting 0.5 ml bupivacaine (AstraZeneca) with a disposable syringe with a 26-gauge needle. Briefly, the needle was inserted into the distal portion of the soleus muscle and then receded longitudinally to the proximal portion accompanying evenly bupivacaine solution injection. The solution was then injected throughout the entire length of the muscle as the needle was slowly withdrawn.
After bupivacaine injection, rats were divided equally (n=10/group) into four experimental groups and treated as follows. […]
Muscle regeneration involves proliferation of muscle fibers, or muscle cells. […] Detailed assay procedures are as described in “Materials and Methods.” The level of BrdU-positive cells was expressed as labeling index (%), which was computed as the number of labeled cells divided by the total number of cells. […]

Row | Sequence | BrdU Labeling Index (%) | Pax7 Labeling Index (%)
1 | SLGAEQRTESIIHRALYYDL [20-mer, synthetic peptide corresponding to residues 93-112 of human PEDF] | 13.6 ± 3.0 | 14.6 ± 1.9
2 | SLGAEQRTESIIHRALYYDLISSPDIHGT [29-mer, synthetic peptide corresponding to residues 93-121 of human PEDF] | 15.4 ± 1.7 | 16.2 ± 2.0
